{
  "source": "paper PMC9572773",
  "about": "“Effects of Extracts and Flavonoids from Drosera rotundifolia L. on Ciliary Beat Frequency and Murine Airway Smooth Muscle” (Molecules, 2022)",
  "key": {"[1]": {"tested_on": "airway smooth muscle of mouse tracheal slices, acetylcholine-induced contraction", "assay": "ACh-induced contraction of mouse tracheal slices (tissue bath)", "type": "cell-based, C57BL/6N mice", "excerpt": "Male and female C57BL/6N mice (Charles River, Sulzfeld, Germany, and own breeding at the Institute of Pharmaceutical and Medicinal Chemistry, University of Münster, Germany) were housed under standard conditions. Animal care followed the rules of German laws (Az. 53.5.32.7.1/MS-12668, Health and Veterinary Office Münster, Germany). The mice were sacrificed using CO2. A Mayflower horizontal tissue bath (Hugo Sachs Elektronik, Germany) was used to measure contractions. Murine tracheal slices of 3 mm were placed in the 5 mL tissue bath at a preload of 0.2 cN. Krebs–Henseleit buffer (37 °C) was continuously gassed (O2:CO2 95:5). Drosera dry extract (0.5 mg/mL) was solved in Krebs–Henseleit buffer containing 1 % DMSO (DE). DFA was obtained as described above. […] Control solutions contained equal amounts of DMSO depending on the respective test compound. Experiments were started after an equilibration time of 60 min. Tracheal tension was measured isometrically (force transducer F10 Type 375, amplifier TAM-A Type 705/1, evaluation software HSE ACAD 2.0, Harvard Apparatus GmbH, March-Hugstetten, Germany). […] Test solutions were added 10 min before the next ACh bolus. When using a high potassium solution (60 mM K^+), NaCl concentration was reduced to maintain osmolarity. At least 3 K^+-induced contractions (each 20 min) were averaged and taken as control contraction. The maximal contraction represents the highest value, while the plateau (plat.) was calculated in minutes 19–20."}, "[2]": {"tested_on": "ciliated tracheal epithelium cells", "assay": "Ciliary beat frequency (CBF) of murine tracheal slices", "type": "cell-based, C57BL/6N mice", "conditions": "for CBFRatio (related to CBFBasal): mean ± SD", "procedure": "Male and female C57BL/6N mice (Charles River, Sulzfeld, Germany, and own breeding at the Institute of Pharmaceutical and Medicinal Chemistry, University of Münster, Germany) were housed under standard conditions. Animal care followed the rules of German laws (Az. 53.5.32.7.1/MS-12668, Health and Veterinary Office Münster, Germany). The mice were sacrificed using CO2. Murine tracheal explants were placed in LHC-9 medium (Invitrogen, CA, USA), cut into 0.5 mm slices and stored at 37 °C and an atmosphere of 5% CO2. The medium was changed every 3 days. CBF was measured up to 7 days after dissection. Slices were placed in a 0.7 mL perfusion chamber at 37 °C and perfused with Krebs–Henseleit buffer (1 mL/min). The tissue bath was located at an inverted Nikon Eclipse Ti2 microscope (Nikon GmbH, Düsseldorf, Germany) with a 100× oil objective. Drosera dry extract (0.2 mg/mL) was solved in Krebs–Henseleit buffer containing 0.3% DMSO (DE). The amount of DMSO was not exceeding 0.3%; as for this concentration, no effects on CBF were reported. DFA was prepared as described above. […] 2″-O-Galloylhyperoside, ATP and salbutamol were solved without DMSO. In case DMSO was added, all test solutions of one experiment contained the same amount of DMSO. […] Videos were captured and analyzed by the SAVA software (Ammons Engineering, Clio, MI, USA). Ciliated cells exerted baseline frequencies in a range of 5 to 20 Hz, in agreement with the literature. Data were normalized to values of the last 5 min before changing to a test solution (CBFbasal), and effects on ciliary beating were expressed as a ratio (CBFRatio)."}, "PDE1A": {"biological_target": "T1, PDE1A (Homo sapiens, UniProt P54750)", "T1 construct": "purchased Biomol (Hamburg, Germany) #60310", "T1 sequence (P54750 whole entry)": "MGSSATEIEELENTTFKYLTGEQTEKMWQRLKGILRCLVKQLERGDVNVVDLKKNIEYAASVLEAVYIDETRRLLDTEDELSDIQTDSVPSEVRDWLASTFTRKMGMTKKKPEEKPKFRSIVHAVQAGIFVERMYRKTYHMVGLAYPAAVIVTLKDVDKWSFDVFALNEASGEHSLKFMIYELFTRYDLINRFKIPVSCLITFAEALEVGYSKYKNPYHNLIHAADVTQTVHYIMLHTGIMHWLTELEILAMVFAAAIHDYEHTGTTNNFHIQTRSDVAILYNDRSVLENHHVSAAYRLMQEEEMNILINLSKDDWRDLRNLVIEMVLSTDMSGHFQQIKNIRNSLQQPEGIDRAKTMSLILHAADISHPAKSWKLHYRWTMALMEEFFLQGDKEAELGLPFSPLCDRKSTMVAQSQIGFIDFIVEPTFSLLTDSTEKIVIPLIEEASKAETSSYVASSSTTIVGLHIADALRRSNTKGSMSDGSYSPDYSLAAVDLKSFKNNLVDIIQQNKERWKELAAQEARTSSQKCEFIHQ", "assay": "PDE1A inhibitor assay (fluorescence polarization, cell-free)", "type": "biochemical", "conditions": "for IC50: cell-free, duplicates, 1% DMSO, CI = confidence interval", "procedure": "The activity of PDE4D and PDE1A was measured with assay kits #60345 and #60310 from Biomol (Hamburg, Germany). Assays were based on fluorescence polarization using fluorescein amidites-labeled cAMP and were performed according to the manufacturer’s instructions. Samples were recorded as duplicates in a 96-well plate containing equal amounts of DMSO (1%). The fluorescence polarization was measured at excitation wavelengths between 480 and 516 nm and emission wavelengths between 530 and 540 nm by using the plate reader CLARIOstar (BMG Labtech, Ortenberg, Germany). The IC50 values were calculated by a fitting of sigmoidal dose–response curves (variable slope) with GraphPad Prism version 3.00 for Windows (GraphPad, San Diego, CA, USA)."}, "PDE4D": {"biological_target": "T2, PDE4D (Homo sapiens, UniProt Q08499)", "T2 construct": "purchased Biomol (Hamburg, Germany) #60345", "T2 sequence (Q08499 303-809 limits assumed)": "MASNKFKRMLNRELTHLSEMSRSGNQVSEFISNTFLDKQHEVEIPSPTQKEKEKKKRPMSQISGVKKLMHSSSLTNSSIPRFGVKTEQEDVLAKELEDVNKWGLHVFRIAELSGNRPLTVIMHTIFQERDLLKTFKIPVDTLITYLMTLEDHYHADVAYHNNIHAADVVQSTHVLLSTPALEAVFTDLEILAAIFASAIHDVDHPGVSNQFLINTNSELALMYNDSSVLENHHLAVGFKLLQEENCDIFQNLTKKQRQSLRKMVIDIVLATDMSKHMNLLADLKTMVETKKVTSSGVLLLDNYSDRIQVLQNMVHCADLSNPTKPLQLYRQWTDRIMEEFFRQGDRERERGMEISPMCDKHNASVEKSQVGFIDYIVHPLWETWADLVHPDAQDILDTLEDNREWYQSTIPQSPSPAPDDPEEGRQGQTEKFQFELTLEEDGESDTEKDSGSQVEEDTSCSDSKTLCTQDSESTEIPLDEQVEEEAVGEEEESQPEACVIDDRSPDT", "assay": "PDE4D inhibitor assay (fluorescence polarization, cell-free)", "type": "biochemical", "conditions": "for IC50: cell-free, duplicates, 1% DMSO, CI = confidence interval", "procedure": "Assays were based on fluorescence polarization using fluorescein amidites-labeled cAMP and were performed according to the manufacturer’s instructions. Samples were recorded as duplicates in a 96-well plate containing equal amounts of DMSO (1%). […] The IC50 values were calculated by a fitting of sigmoidal dose–response curves (variable slope) with GraphPad Prism version 3.00 for Windows (GraphPad, San Diego, CA, USA)."}, "guinea-pig ileum": {"tested_on": "guinea-pig ileum", "parameters": "method as in PMID 11933852", "conditions": "10 µM; cited from earlier work"}},
  "data": [
    {"compound": "O=C(O[C@H]1[C@H](Oc2c(-c3ccc(O)c(O)c3)oc3cc(O)cc(O)c3c2=O)O[C@H](CO)[C@H](O)[C@@H]1O)c1cc(O)c(O)c(O)c1", "note": "[2″-O-galloylhyperoside]", "values": [
      {"measurement": "ACh-induced contraction, % of control", "setting": "[1]; 500 µM, 10 min pretreatment, 100 µM ACh", "value": "61 ± 21", "unit": "%"},
      {"measurement": "ACh-induced contraction compared with the effect at 500 µM", "setting": "[1]; 750 and 1000 µM, 100 µM ACh", "value": "did not significantly differ"},
      {"measurement": "CBFRatio (related to CBFBasal)", "setting": "[2]; 300 µM, minutes 10 to 15", "value": "1.11 ± 0.04"},
      {"measurement": "IC50", "setting": "PDE1A", "value": 3, "unit": "µM"},
      {"measurement": "IC50", "setting": "PDE4D", "value": 1.1, "unit": "µM"}
    ]},
    {"compound": "COCc1nc2c([nH]1)c(=O)n(C)c(=O)n2CC(C)C", "note": "[8MmIBMX, 8-methoxymethyl-IBMX]", "values": [
      {"measurement": "increase of CBF on average", "setting": "[2]; 100 µM", "value": 20, "unit": "%"},
      {"measurement": "CBFRatio (related to CBFBasal)", "setting": "[2]; 100 µM, minutes 10 to 15", "value": "1.2 ± 0.1"},
      {"measurement": "IC50", "setting": "PDE1A", "value": 12, "unit": "µM"},
      {"measurement": "PDE4D activity (% of control without inhibitor)", "setting": "PDE4D; 50 µM", "value": "77 ± 6", "unit": "%"},
      {"measurement": "PDE4D activity (% of control without inhibitor)", "setting": "PDE4D; 100 µM", "value": "70 ± 2", "unit": "%"}
    ]},
    {"compound": "Nc1ncnc2c1ncn2[C@@H]1O[C@H](COP(=O)(O)OP(=O)(O)OP(=O)(O)O)[C@@H](O)[C@H]1O", "note": "[ATP]", "values": [
      {"measurement": "CBFRatio (related to CBFBasal)", "setting": "[2]; 30 µM, minutes 10 to 15", "value": "1.4 ± 0.2"}
    ]},
    {"compound": "O=c1c(O[C@@H]2O[C@H](CO)[C@H](O)[C@H](O)[C@H]2O)c(-c2ccc(O)c(O)c2)oc2cc(O)cc(O)c12", "note": "[Hyperoside, hyperoside]", "values": [
      {"measurement": "ACh-mediated contraction force, % of control", "setting": "[1]; 50 to 750 µM, all concentrations tested, 100 µM ACh", "value": "approximately 80%"},
      {"measurement": "maximal reduction of ACh-induced contraction force", "setting": "[1]; maximal effect", "value": "20–25%"},
      {"measurement": "IC50", "setting": "PDE4D", "value": 3, "unit": "µM"}
    ]},
    {"compound": "O=c1c(O)c(-c2ccc(O)c(O)c2)oc2cc(O)cc(O)c12", "note": "[quercetin]", "values": [
      {"measurement": "abrogation of ACh-induced contraction on ASM", "setting": "[1]; 10 µM", "value": "failed to abrogate"},
      {"measurement": "activity at 25 µM", "setting": "[1]; Mus musculus, 25 µM, 10 min pretreatment, read-out: effect of 100 µM ACh (contraction force, % of control)", "value": "74 ± 11", "unit": "%"},
      {"measurement": "activity at 50 µM", "setting": "[1]; Mus musculus, 50 µM, 10 min pretreatment, read-out: effect of 100 µM ACh (contraction force, % of control)", "value": "63 ± 7", "unit": "%"},
      {"measurement": "activity at 100 µM", "setting": "[1]; Mus musculus, 100 µM, 10 min pretreatment, read-out: effect of 100 µM ACh (contraction force, % of control)", "value": "21 ± 2", "unit": "%"},
      {"measurement": "CBFRatio (related to CBFBasal)", "setting": "[2]; 30 µM, minutes 10 to 15", "value": "1.2 ± 0.2"},
      {"measurement": "IC50", "setting": "PDE1A", "value": 4, "unit": "µM"},
      {"measurement": "IC50", "setting": "PDE4D", "value": 2, "unit": "µM"},
      {"measurement": "inhibition of carbachol-induced contractions", "setting": "guinea-pig ileum", "value": "more than 50%"}
    ]},
    {"compound": "COc1ccc(C2CNC(=O)C2)cc1OC1CCCC1", "note": "(stereo not drawn) [rolipram]", "values": [
      {"measurement": "increase of CBF on average", "setting": "[2]; 30 µM", "value": 20, "unit": "%"},
      {"measurement": "CBFRatio (related to CBFBasal)", "setting": "[2]; 30 µM, minutes 10 to 15", "value": "1.2 ± 0.2"},
      {"measurement": "remaining activity at 100 µM", "setting": "PDE1A; 100 µM, read-out: PDE1A activity (% of control without inhibitor)", "value": "98.2 ± 0.6", "unit": "%"},
      {"measurement": "remaining activity at 300 µM", "setting": "PDE1A; 300 µM, read-out: PDE1A activity (% of control without inhibitor)", "value": "92 ± 2", "unit": "%"}
    ]},
    {"compound": "CC(C)(C)NCC(O)c1ccc(O)c(CO)c1", "note": "(stereo not drawn) [salbutamol]", "values": [
      {"measurement": "CBFRatio (related to CBFBasal)", "setting": "[2]; 50 µM, minutes 5 to 10", "value": "1.4 ± 0.3"}
    ]}
  ]
}
